Measurements: ChEMBL document CHEMBL1201862, “PubChem BioAssay data set” (2004)
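These data come from cells grown in 96-well plates and exposed to compound for 48 hours at five concentrations. GI50 is the concentration that inhibits growth by half.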 The source made the active and inactive calls. Cut-off read from the data, not from the text of the source: active = GI50 up to about 1.1 µM and inactive = higher.

Tests used:
Experiment in all cases: NCI-60 cell line screen, 48 h
SF-268 = system: SF-268
SW-620 = system: SW-620
PC-3 = system: PC-3
A549 = system: A549
BT-549 = system: BT-549
LOX IMVI = system: LOX IMVI
U-251 = system: U-251
MOLT-4 = system: MOLT-4
UO-31 = system: UO-31
SK-MEL-2 = system: SK-MEL-2
MDA-MB-435 = system: MDA-MB-435
K562 = system: K562
NCI-H460 = system: NCI-H460
OVCAR-5 = system: OVCAR-5
SNB-75 = system: SNB-75
SN12C = system: SN12C
HL-60 = system: HL-60
HOP-92 = system: HOP-92
Malme-3M = system: Malme-3M
CAKI-1 = system: CAKI-1

SMILES | GI50 (SF-268) | GI50 (SW-620) | GI50 (PC-3) | GI50 (A549) | GI50 (BT-549) | GI50 (LOX IMVI) | GI50 (U-251) | GI50 (MOLT-4) | GI50 (UO-31) | GI50 (SK-MEL-2) | GI50 (MDA-MB-435) | GI50 (K562) | GI50 (NCI-H460) | GI50 (OVCAR-5) | GI50 (SNB-75) | GI50 (SN12C) | GI50 (HL-60) | GI50 (HOP-92) | GI50 (Malme-3M) | GI50 (CAKI-1)
CC(C)=CC(=O)OC1C2C(C)=CC(=O)C(O)C2(C)C2C3(O)OCC24C(CC(=O)OC14)C(C)C3O (stereo not drawn) | 0.029 µM (active) | 0.00822 µM (active) | 0.00289 µM (active) | 0.152 µM (active) | 0.00287 µM (active) | 0.0015 µM (active) | 0.00324 µM (active) | 0.0011 µM (active) | 0.203 µM (active) | 0.0179 µM (active) | 0.003 µM (active) | 0.00521 µM (active) | 0.0294 µM (active) | 0.0101 µM (active) | 0.0141 µM (active) | 0.0479 µM (active) | 0.00269 µM (active) | 0.00684 µM (active) | – | –
N#Cc1ccc(Oc2nc3ccccc3nc2-c2ccccc2)cc1 | > 100 µM (inactive) | > 100 µM (inactive) | > 100 µM (inactive) | – | > 100 µM (inactive) | > 100 µM (inactive) | > 100 µM (inactive) | > 100 µM (inactive) | > 100 µM (inactive) | > 100 µM (inactive) | > 100 µM (inactive) | > 100 µM (inactive) | > 100 µM (inactive) | > 100 µM (inactive) | – | > 100 µM (inactive) | > 100 µM (inactive) | > 100 µM (inactive) | > 100 µM (inactive) | > 100 µM (inactive)
O=C(O)CN1CCNCCN(CP(=O)(O)O)CC1 | 22.3 µM (inactive) | 4.49 µM (inactive) | 9.73 µM (inactive) | 4.89 µM (inactive) | > 100 µM (inactive) | – | > 24.3 µM (inactive) | 4.34 µM (inactive) | 53.2 µM (inactive) | 7.03 µM (inactive) | > 53 µM (inactive) | 3.92 µM (inactive) | 3.44 µM (inactive) | 6.52 µM (inactive) | 14.2 µM (inactive) | > 100 µM (inactive) | 3.22 µM (inactive) | 22.3 µM (inactive) | 1.75 µM (inactive) | > 100 µM (inactive)
N#Cc1nsnc1-c1nc(-c2nsnc2C#N)nc(-c2nsnc2C#N)n1 | > 100 µM (inactive) | > 100 µM (inactive) | > 100 µM (inactive) | – | > 100 µM (inactive) | > 100 µM (inactive) | > 100 µM (inactive) | > 100 µM (inactive) | > 100 µM (inactive) | > 100 µM (inactive) | > 100 µM (inactive) | > 100 µM (inactive) | > 100 µM (inactive) | > 100 µM (inactive) | > 100 µM (inactive) | > 100 µM (inactive) | 76.6 µM (inactive) | – | > 100 µM (inactive) | > 100 µM (inactive)
CCOc1ccccc1/N=C\c1c2ccccc2cc2ccccc12 | 21.2 µM (inactive) | 24.5 µM (inactive) | 23.3 µM (inactive) | 26.4 µM (inactive) | 28.2 µM (inactive) | 19.1 µM (inactive) | 20.4 µM (inactive) | 11.6 µM (inactive) | 18.6 µM (inactive) | 22.1 µM (inactive) | 22.7 µM (inactive) | 17.3 µM (inactive) | 29.9 µM (inactive) | 25.8 µM (inactive) | 19.5 µM (inactive) | 22.4 µM (inactive) | 16 µM (inactive) | 21 µM (inactive) | – | 24.2 µM (inactive)
Cc1ccc(C(=O)N/N=C(\N=N\c2ccccc2Cl)c2ccc(N(C)C)cc2)cc1 | > 100 µM (inactive) | > 100 µM (inactive) | 49 µM (inactive) | 50.6 µM (inactive) | 29.3 µM (inactive) | 43.6 µM (inactive) | 62.1 µM (inactive) | 20 µM (inactive) | 29.4 µM (inactive) | 54.6 µM (inactive) | 10.5 µM (inactive) | 17.1 µM (inactive) | 37.3 µM (inactive) | 68.4 µM (inactive) | – | > 100 µM (inactive) | 14.1 µM (inactive) | > 100 µM (inactive) | – | 30.5 µM (inactive)
CCOC(=O)N1CCNCCN(C(=O)OCC)CCNCC1 | > 100 µM (inactive) | > 100 µM (inactive) | > 100 µM (inactive) | > 100 µM (inactive) | > 100 µM (inactive) | > 100 µM (inactive) | > 100 µM (inactive) | > 100 µM (inactive) | > 100 µM (inactive) | > 100 µM (inactive) | > 100 µM (inactive) | > 100 µM (inactive) | > 100 µM (inactive) | > 100 µM (inactive) | – | > 100 µM (inactive) | > 100 µM (inactive) | > 100 µM (inactive) | – | > 100 µM (inactive)
